“And” between values parts separate entries of the source, which are not always exact repeats. Equal entries are not always repeated. Where two headings read alike, the source gives them in different places.

The subject of data set [1] is β-actin mRNA (housekeeping gene). The conditions noted are these: 3× dosage; conventional qPCR machine CFX96 Touch; control 22.93 ± 0.11. The protocol:
(§1) A short-term (5 days) preclinical drug toxicity experiment was performed on common black laboratory mice (Strain name: C57BL/6J; Age: 5-7 weeks). All experiments were performed in accordance with the National Institutes of Health Guide for the care and use of laboratory animals (NIH Publications No. 80-23, revised 1996) and conducted after approval by the Institutional Animal Care and Use Committee of Houston Methodist Research Institute (HMRI).
(§2) A total of eight mice were divided into two equal groups, with one mouse in each group designated as the control and the remaining three subjected to drug treatment. […] The drug was administered through intraperitoneal route, with the first group having a single dose administered on the 1st day only; and the second group having 3 doses administered on the 1st, 3rd and 5th days. The animals were subsequently euthanized following standard carbon dioxide anaesthesia procedure on the 5th day after final drug administration. The mouse liver tissues were thereafter silated, and cut into equal small pieces (˜20-30 mg) and stored in RNAlater RNA Stabilization Reagent (QIAGEN®, USA) at 4° C. to prevent RNA degradation.
(§3) Once the purified mRNA had been extracted from the liver tissue samples, 30 μL of the purified mRNA extract (i.e. elution buffer with the microbeads) was collected in an EPPENDORF® tube containing the following RT-PCR composition: 75 μL 2× SYBR Green RT-PCR reaction mix (BIORAD®, Singapore), 3.0 μL iSCRIPT™ One-Step RT-PCR reverse transcriptase (BIORAD®, Singapore) and 42 μL nuclease-free water. This 150 μL final RT-PCR assay was subsequently transferred from the EPPENDORF® tube into a 250 μL HAMILTON® glass syringe connected to the RT-PCR microfluidic chip via a 1/32″ OD tubing.
(§4) The chip-compatible thermal cycler was based on the open-source OpenPCR® (Chai Biotechnologies, USA) platform, using a custom-designed aluminium metal block for contact-based thermal cycling and an ARDUINO® microcontroller for precise temperature control (see FIG. 17—schematic diagram 1700 illustrating the multiplex microfluidic real-time RT-PCR setup).
(§5) To provide a benchmark reference to the chip disclosed herein, the same RT-PCR assays (with addition of forward/reverse primers at 0.5 μM concentration) were amplified separately in EPPENDORF® tubes on a conventional CFX96 TOUCH™ Real-Time PCR Detection System (BIORAD®, USA).
(§6) The thermal cycling process was as follows: 70° C. for 2 mins to allow dehybridization of the captured mRNA from the microbeads, followed by 50° C. for 10 minutes for reverse transcription, subsequently with an initial denaturation step of 95° C. for 5 mins and finally 35 cycles of PCR, comprising two stages: denaturation at 95° C. for 10 s and annealing/extension at 55° C. for 30 s.
(§7) To enable simultaneous fluorescent detection of amplified cDNA for a fully-quantitative methodology, the inventors developed an image capturing system embodying a camera module with blue excitation LEDs to be mounted on the chip-compatible thermal cycler disclosed herein (FIG. 19—RT-PCR and fluorescent detection setup 1900). A 3MP CMOS camera with mounted 550 nm longpass optical filter (ISLAND OPTICAL SYSTEMS®, Singapore) was fitted onto a black opaque acrylic frame with a 470 nm blue LED module (IORODEO®, USA) to provide an excitation source for the SYBR Green 1 fluorescent dye present in the RT-PCR assay. The blue LED module was affixed at an angle of ˜45° to the plane of the microfluidic chip to minimize excitation light interference on the captured light pathway of the camera unit.

Data set [2] deals with ALT mRNA. The conditions noted are these: for mean Ct (± S.D.), ALT: 3× dosage. The procedure: as §1, §2, §3, §4, §5, §6, §7
Data set [3] relates to AST mRNA. The conditions noted are these: for mean Ct (± S.D.), AST: 3× dosage. The procedure:
as §1, §2, §3, §4, §5, §6, §7

Data set [4] concerns β-actin mRNA (housekeeping gene). The conditions noted are these: after 1× and 3× drug dosage (200 mg/kg body wt.); mouse liver tissue. The procedure:
as §1, §2
(§8) A liver tissue sample, weighing approximately 20-30 mg, was loaded directly into the tissue lysis chamber. The tissue sample was secured within the chamber when the tissue microhomogenizer attachment was fitted into the opening of the lysis chamber. Subsequently, 250 μL Lysis/Binding buffer was loaded into another 250 μL glass syringe (see FIG. 16, Sample Inlet), and actuated into the tissue lysis chamber at a flow rate of 200 μL/min. For tissue lysis, the microhomogenizer attachment was activated for ˜1 min to allow the liver tissue to be shredded and homogenized. After the completion of tissue lysis, the unwanted tissue debris and supernatant were removed by the micro-pillars as the homogenized tissue lysate was actuated into the mixing chamber, where the lysate was mixed with the microbeads for ˜8 mins to allow for mRNA binding.
(§9) The purified mRNA from each mouse liver tissue sample was collected in an EPPENDORF® tube preloaded with an RT-PCR master mix. To validate the efficacy of our sample preparation microfluidic chip, purified mRNA solutions extracted using our microfluidic chip was tested for their purity using the NANODROP™ 2000 (THERMOSCIENTIFIC®, Singapore), to ensure an A260/280 ratio of ˜2.0-2.2 before proceeding to the subsequent downstream applications of RT-PCR and nucleic acid detection.
as §3
(§10) The chip-compatible thermal cycler was based on the open-source OpenPCR® (Chai Biotechnologies, USA) platform, using a custom-designed aluminium metal block for contact-based thermal cycling and an ARDUINO® microcontroller for precise temperature control (see FIG. 17—schematic diagram 1700 illustrating the multiplex microfluidic real-time RT-PCR setup). […]

In data set [5] the test system is ALT mRNA. The conditions noted are these: mouse liver tissue. The protocol: as §1, §2, §8, §9, §3, §10
Data set [6] has as its system AST mRNA. The conditions noted are these: mouse liver tissue. The procedure:
as §1, §2, §8, §9, §3, §10

[7] abbreviates: 3× dosage vs untreated control, Livak ΔΔCt method, normalized to β-actin, microfluidic data.
[8] abbreviates: 1× drug dosage (200 mg/kg body wt., intraperitoneal, day 1 only).
Setting [9] is: 3× drug dosage (200 mg/kg body wt., intraperitoneal, days 1, 3, 5), normalized to untreated control.

Turning to `O=P1(N(CCCl)CCCl)NCCCO1` (stereo not drawn) [cyclophosphamide], the “mean Ct (± S.D.), β-actin” value in data set [1] came out at 23.02 ± 0.08. Further, the “normalized fold change (up-regulation) for ALT” value in the data set on ALT mRNA [2] (setting [7]) came to 1.31 fold. The “mean Ct (± S.D.), ALT” value with ALT mRNA [2] (Microfluidic Chip, control 28.8 ± 0.2) is 28.5 and 28.5 ± 0.3; in the data set with ALT mRNA [2] (conventional qPCR machine CFX96 Touch, control 27.28 ± 0.10) it was 26.75 ± 0.07. The “normalized fold change (up-regulation) for AST” value in the data set with AST mRNA [3] (setting [7]) is on record as 1.62 fold. The “mean Ct (± S.D.), AST” value in the data set with AST mRNA [3] (Microfluidic Chip, control 20.5 ± 0.2) is 19.9 and 19.9 ± 0.2; with AST mRNA [3] (conventional qPCR machine CFX96 Touch, control 20.07 ± 0.02), 19.34 ± 0.05. Moreover, the “β-actin mRNA expression levels” value in data set [4] is “remained relatively unchanged”. Besides, the “difference in final cDNA concentration (ALT) compared to untreated control” value in the data set with ALT mRNA [5] (setting [8]) is recorded as “no significant difference”. Also, the “increase in final cDNA concentration for ALT” value with ALT mRNA [5] (setting [9]) turned out to be 33.3%. Further, in the data set on AST mRNA [6] (setting [8]), the “difference in final cDNA concentration (AST) compared to untreated control” value is “no significant difference”. Besides, the “increase in final cDNA concentration for AST” value in the data set with AST mRNA [6] (setting [9]) is recorded as 58.7%.

Values taken from patent publication US10913068B2, “Testing device, microfluidic chip and nucleic acid testing method” (Nanyang Technological University, priority 2015, dated 2021).
